The results in this text go back to patent US9242009B2, “Compositions and methods to treat neurodegenerative diseases” (The General Hospital Corporation, priority 2012, dated 2016).

Molecules are shown by their SMILES.

In series [1] the test system is phosphorylated ERK1/2 at threonine 202 and tyrosine 204. In words: Immunoblot of phosphorylated ERK1/2 in SH-SY5Y after OGD. It counts as cell-based, Human. To be noted: 50 μM added 8 hours after end of OGD. Here is the method:
(§1) OGD for SH-SY5Y was performed by placing cells in a hypoxia chamber ([…] Technologies Inc.) for 15 hours, followed by 24 hours of reoxygenation as previously reported (FIG. 3A) (Serra-Pérez et al. (2008) Journal of Neurochemistry 106, 1237-1247). Briefly, medium was replaced with glucose-free RPMI 1640 with L-glutamine (Cellgro by Mediatech, Inc), deoxygenated with anaerobic gas mixture (93% N2-5% CO2-2% H2) for 30 minutes before use. Cells were then placed in a hypoxia chamber, flushed with anaerobic gas mixture (93% N2-5% CO2-2% H2) and incubated at 37° C. […]
(§2) Protein levels in SH-SY5Y were determined by standard immunoblot techniques using primary antibodies (1:1,000, Cell Signaling Technology Inc., Danvers, Mass.) against cleaved caspase-3, caspase-3, phosphorylated Akt at threonine 308, Akt, phosphorylated ERK1/2 at threonine 202 and tyrosine 204, Erk1/2, β-tubulin and phosphorylated tau protein at serine 202 and threonine 205 (1:250; Thermo scientific, MN1020), tau protein (1:1000; Thermo scientific, MN1010). Bound antibody was detected with a horseradish peroxidase-linked antibody directed against rabbit IgG (1:10,000˜1:25,000; Cell Signaling Technology Inc.), or mouse IgG (1:2,000; GE healthcare, NA931V) and was visualized using chemiluminescence with ECL Advance kit (GE healthcare).

Series [2] has as its system Aβ1-42. To be noted: LPS challenge for 7 days.
Series [3] deals with cleaved caspase-3. As to the kind of experiment: Immunoblot of cleaved caspase-3 in SH-SY5Y after OGD. It counts as cell-based, Human. To be noted: 50 μM added 8 hours after end of OGD; 15 hours OGD, 24 hours reoxygenation. As for the experimental part:
as §1, §2
On the technique in general: Immunoblotting shows a protein as a band on a membrane.

The test system of series [4] is murine primary cortical neurons. In words: Cytotoxicity of H2S donors to murine primary cortical neurons (LDH release). It counts as cell-based, mice. To be noted: 50 μM; 24 hours; without memantine. Here is the method: A microtiter plate containing cells was centrifuged at 250×g for 10 minutes and the supernatant was used for LDH measurement with LDH Cytotoxicity Detection Kit (Roche). After aspirating the medium, remaining cells were washed with PBS, then, 100 μl of 1% Triton-X was added to each well, followed by incubation at 37° C. for 30 minutes. Medium and lysates were used for LDH measurement at wavelength 492 nm. Percentage of released LDH was calculated with following formula: {LDH (medium)/LDH (medium+cell)×100}. Average value of control (cells without OGD) was deducted as background.
Background: LDH leaks from cells whose membrane has failed.

For series [5] the test system is unchanged. As to the kind of experiment: Oxygen-glucose deprivation (OGD) of murine primary cortical neurons, LDH release. It is filed as cell-based, mice. Here is the method: Primary neuronal cultures were prepared from the cortex of embryonic day 15 C57BL6J mice. In brief, brains were harvested and the hemispheres were dissected under a microscope. The cortical neurons were dissociated in Neurobasal medium (Gibco) with B27 supplement (antioxidant plus, Gibco). The cells were seeded into 24 well plates coated with poly-D-lysine (Becton Dickinson Labware, 2×10^5 cells per well), followed by the medium-change with fresh one on the next day. The half of culture medium was replaced with Neurobasal medium witn B27 supplement (antioxidant minus) every other day, and the cultures were maintained at 37° C. in 95% air/5% CO2 in a humidified incubator. Cells were used for experiments 11 days after seeding.
OGD for primary cortical neurons was performed with the similar protocol as above (FIG. 3B). Briefly, the culture medium was replaced with deoxygenated Neurobasal medium without glucose, and then placed in the hypoxic chamber for 2.5 hours. After OGD, the medium was replaced with Neurobasal medium with glucose and incubated for 21 hours at 37° C. in 95% air/5% CO2 in a humidified incubator. […]
A microtiter plate containing cells was centrifuged at 250×g for 10 minutes and the supernatant was used for LDH measurement with LDH Cytotoxicity Detection Kit (Roche). […] Percentage of released LDH was calculated with following formula: {LDH (medium)/LDH (medium+cell)×100}. […]

The subject of series [6] is SH-SY5Y. As to the kind of experiment: Intracellular GSH levels in SH-SY5Y (HPLC). It is filed as cell-based, Human. To be noted: 50 μM, 8 hours. Here is the method:
Intracellular GSH level of SH-SY5Y was measured using HPLC method as previously reported (Kimura et al. (2009) Antioxidants & Redox Signaling 12, 1-13). Briefly, cells were seeded into 6 cm dishes (5×10^5 cells per dish) and treated with 50 μM H2S donors or memantine with or without 2 mM glutamate for 8 hours, followed by washing with ice-cold PBS. Cells were scraped and transferred to a microfuge tube and sonicated. Some fraction of lysate was used for protein assay. After centrifugation, 75 μl of supernatant, 26 μl of 2-(cyclohexylamino) ethanesulfonic acid (CHES, 0.5 M, PH 8.4), and 4 μl of 50 μM MBB were mixed and incubated at room temperature in dark for 30 minutes. Acetic acid (100 μl, 30% v/v) was added, followed by centrifugation at 15,000×g for 10 min after 5 min incubation of the tube on ice. The supernatant was analyzed using HPLC at wavelength of λex=370 nm and λem=486 nm.

For the compound `C[C@]12C[C@@H]3C[C@](C)(C1)C[C@@](NC(=O)c1ccc(-c4cssc4=S)cc1)(C3)C2` [S-memantine, N-((1r,3R,5S,7r)-3,5-dimethyladamantan-1-yl)-4-(3-thioxo-3H-1,2-dithiol-4-yl)-benzamide], the “Dephosphorylation of ERK after OGD” value in series [1] is recorded as “attenuated dephosphorylation of ERK”. The “Aβ1-42 accumulation in mice cortex, or hippocampus” value in series [2] (90 μmol/kg pretreatment) is “prevented Aβ1-42 accumulation”. Also, in series [2], the “Prevention of Aβ1-42 accumulation compared with memantine” value was “prevented Aβ1-42 accumulation more markedly than did memantine”. Besides, the “Caspase-3 activation after OGD” value in series [3] is “prevented caspase-3 activation”. The “LDH release (cytotoxicity)” value in series [4] is listed as “did not induce LDH release”. Also, in series [5] (50 μM added 30 minutes after end of OGD, 2.5 hours OGD, 21 hours reoxygenation), the “Neuroprotective effect after OGD (LDH release)” value is reported as “more robust neuroprotective effects compared to ACS48 or memantine”. Besides, the “Cell viability after OGD” value in series [5] (incubation starting at 30 minutes or 2 hours after OGD) is given as “improved”. Moreover, the “Magnitude of increase of GSH levels compared with Na2S or ACS48” value in series [6] is recorded as “greater than with Na2S or ACS48”. Moreover, the “Intracellular GSH levels” value was “restored intracellular GSH levels” in series [6] (with 2 mM glutamate) and “increased intracellular GSH levels” in series [6] (without glutamate).
